Data: the NIST ThermoML archive (doi:10.1016/j.jct.2015.11.027)
± gives the expanded uncertainty stated by the source.

Settings: Liquid, Vibrating wire viscometry

Cc1ccccc1C [1,2-dimethylbenzene]
Settings	viscosity [mPa·s]
273.48 K, 100 kPa	1.102 ± 0.024
273.48 K, 1000 kPa	1.113 ± 0.024
273.48 K, 5000 kPa	1.154 ± 0.025
273.48 K, 10000 kPa	1.209 ± 0.026
273.48 K, 15000 kPa	1.264 ± 0.027
273.48 K, 20000 kPa	1.319 ± 0.028
273.48 K, 25000 kPa	1.378 ± 0.03
273.48 K, 30000 kPa	1.436 ± 0.031
283.21 K, 10000 kPa	1.031 ± 0.023
283.21 K, 15000 kPa	1.075 ± 0.023
283.21 K, 20000 kPa	1.121 ± 0.024
283.21 K, 25000 kPa	1.169 ± 0.025
283.21 K, 30000 kPa	1.216 ± 0.026
283.22 K, 100 kPa	0.9464 ± 0.021
283.22 K, 1000 kPa	0.9529 ± 0.021
283.22 K, 5000 kPa	0.9859 ± 0.022
293.04 K, 100 kPa	0.8196 ± 0.018
293.04 K, 1000 kPa	0.8252 ± 0.018
293.04 K, 5000 kPa	0.8535 ± 0.019
293.04 K, 10000 kPa	0.8901 ± 0.019
293.05 K, 15000 kPa	0.9269 ± 0.02
293.05 K, 20000 kPa	0.9685 ± 0.021
293.05 K, 25000 kPa	1.006 ± 0.022
293.06 K, 30000 kPa	1.048 ± 0.023
302.87 K, 100 kPa	0.7178 ± 0.016
302.87 K, 1000 kPa	0.7228 ± 0.016
302.87 K, 20000 kPa	0.8457 ± 0.019
302.87 K, 25000 kPa	0.879 ± 0.019
302.87 K, 30000 kPa	0.9126 ± 0.02
302.88 K, 5000 kPa	0.7489 ± 0.017
302.88 K, 10000 kPa	0.7794 ± 0.017
302.88 K, 15000 kPa	0.8128 ± 0.018
312.66 K, 100 kPa	0.6371 ± 0.014
312.66 K, 10000 kPa	0.6901 ± 0.015
312.66 K, 20000 kPa	0.7486 ± 0.017
312.66 K, 25000 kPa	0.7781 ± 0.017
312.66 K, 30000 kPa	0.8077 ± 0.018
312.67 K, 1000 kPa	0.6414 ± 0.015
312.67 K, 5000 kPa	0.6635 ± 0.015
312.67 K, 15000 kPa	0.7185 ± 0.016
321.85 K, 100 kPa	0.5744 ± 0.013
321.85 K, 1000 kPa	0.5794 ± 0.013
321.85 K, 10000 kPa	0.6241 ± 0.014
321.85 K, 15000 kPa	0.6489 ± 0.015
321.85 K, 30000 kPa	0.7248 ± 0.016
321.86 K, 5000 kPa	0.5991 ± 0.014
321.86 K, 20000 kPa	0.6748 ± 0.015
321.86 K, 25000 kPa	0.6987 ± 0.016
332.47 K, 100 kPa	0.515 ± 0.012
332.47 K, 1000 kPa	0.5176 ± 0.012
332.48 K, 5000 kPa	0.5347 ± 0.012
332.48 K, 10000 kPa	0.5575 ± 0.013
332.48 K, 15000 kPa	0.5798 ± 0.013
332.48 K, 20000 kPa	0.6029 ± 0.014
332.48 K, 25000 kPa	0.6273 ± 0.014
332.48 K, 30000 kPa	0.6504 ± 0.015
343.06 K, 100 kPa	0.4586 ± 0.011
343.07 K, 1000 kPa	0.4624 ± 0.011
343.07 K, 5000 kPa	0.4782 ± 0.011
343.07 K, 10000 kPa	0.499 ± 0.012
343.08 K, 15000 kPa	0.5195 ± 0.012
343.08 K, 25000 kPa	0.5603 ± 0.013
343.08 K, 30000 kPa	0.5817 ± 0.013
343.09 K, 20000 kPa	0.5401 ± 0.012
353.01 K, 30000 kPa	0.5312 ± 0.012
353.02 K, 10000 kPa	0.4549 ± 0.011
353.02 K, 15000 kPa	0.4725 ± 0.011
353.02 K, 20000 kPa	0.4922 ± 0.011
353.02 K, 25000 kPa	0.5113 ± 0.012
353.03 K, 5000 kPa	0.4342 ± 0.01
353.04 K, 100 kPa	0.4177 ± 0.01
353.04 K, 1000 kPa	0.4196 ± 0.01
362.85 K, 100 kPa	0.3838 ± 0.0093
362.85 K, 1000 kPa	0.3862 ± 0.0094
362.85 K, 5000 kPa	0.4001 ± 0.0096
362.85 K, 10000 kPa	0.4169 ± 0.01
362.86 K, 15000 kPa	0.434 ± 0.01
362.86 K, 20000 kPa	0.4506 ± 0.011
362.87 K, 25000 kPa	0.469 ± 0.011
362.87 K, 30000 kPa	0.4842 ± 0.011
372.83 K, 100 kPa	0.3528 ± 0.0087
372.84 K, 1000 kPa	0.3556 ± 0.0088
372.84 K, 5000 kPa	0.3683 ± 0.009
372.85 K, 10000 kPa	0.3831 ± 0.0093
372.85 K, 25000 kPa	0.4324 ± 0.01
372.86 K, 15000 kPa	0.4015 ± 0.0097
372.86 K, 20000 kPa	0.4156 ± 0.0099
372.86 K, 30000 kPa	0.4477 ± 0.011

Cc1cccc(C)c1 [1,3-dimethylbenzene]
Settings	viscosity [mPa·s]
273.54 K, 10000 kPa	0.8601 ± 0.019
273.54 K, 25000 kPa	0.9681 ± 0.021
273.54 K, 30000 kPa	1.008 ± 0.022
273.55 K, 1000 kPa	0.8029 ± 0.018
273.55 K, 5000 kPa	0.8274 ± 0.018
273.55 K, 15000 kPa	0.8952 ± 0.02
273.55 K, 20000 kPa	0.9293 ± 0.02
273.56 K, 100 kPa	0.7948 ± 0.018
283.24 K, 100 kPa	0.7 ± 0.016
283.24 K, 10000 kPa	0.7574 ± 0.017
283.25 K, 1000 kPa	0.707 ± 0.016
283.25 K, 5000 kPa	0.7291 ± 0.016
283.25 K, 15000 kPa	0.7883 ± 0.017
283.25 K, 20000 kPa	0.8196 ± 0.018
283.25 K, 25000 kPa	0.853 ± 0.019
283.25 K, 30000 kPa	0.8858 ± 0.019
293.06 K, 1000 kPa	0.6255 ± 0.014
293.06 K, 20000 kPa	0.7224 ± 0.016
293.06 K, 25000 kPa	0.7497 ± 0.017
293.07 K, 100 kPa	0.6215 ± 0.014
293.07 K, 5000 kPa	0.644 ± 0.015
293.07 K, 10000 kPa	0.6692 ± 0.015
293.07 K, 15000 kPa	0.6957 ± 0.016
293.07 K, 30000 kPa	0.7757 ± 0.017
302.87 K, 30000 kPa	0.6903 ± 0.015
302.88 K, 5000 kPa	0.5751 ± 0.013
302.88 K, 25000 kPa	0.6673 ± 0.015
302.89 K, 15000 kPa	0.6204 ± 0.014
302.9 K, 100 kPa	0.5542 ± 0.013
302.9 K, 1000 kPa	0.5571 ± 0.013
302.9 K, 10000 kPa	0.598 ± 0.014
302.9 K, 20000 kPa	0.645 ± 0.015
313.29 K, 1000 kPa	0.4982 ± 0.012
313.3 K, 100 kPa	0.4952 ± 0.011
313.3 K, 5000 kPa	0.5142 ± 0.012
313.3 K, 10000 kPa	0.5341 ± 0.012
313.31 K, 15000 kPa	0.5548 ± 0.013
313.31 K, 20000 kPa	0.5757 ± 0.013
313.31 K, 25000 kPa	0.5968 ± 0.013
313.31 K, 30000 kPa	0.618 ± 0.014
323 K, 10000 kPa	0.4847 ± 0.011
323.01 K, 100 kPa	0.4499 ± 0.011
323.01 K, 1000 kPa	0.4531 ± 0.011
323.01 K, 5000 kPa	0.467 ± 0.011
323.02 K, 15000 kPa	0.5032 ± 0.012
323.02 K, 20000 kPa	0.522 ± 0.012
323.02 K, 25000 kPa	0.5411 ± 0.012
323.02 K, 30000 kPa	0.5599 ± 0.013
333.1 K, 100 kPa	0.4087 ± 0.0098
333.11 K, 1000 kPa	0.411 ± 0.0099
333.11 K, 5000 kPa	0.4237 ± 0.01
333.11 K, 10000 kPa	0.4414 ± 0.01
333.11 K, 15000 kPa	0.4585 ± 0.011
333.11 K, 20000 kPa	0.4756 ± 0.011
333.12 K, 25000 kPa	0.4931 ± 0.011
333.12 K, 30000 kPa	0.5101 ± 0.012
342.97 K, 20000 kPa	0.4363 ± 0.01
342.97 K, 25000 kPa	0.4516 ± 0.011
342.97 K, 30000 kPa	0.4678 ± 0.011
342.98 K, 100 kPa	0.3731 ± 0.0091
342.98 K, 1000 kPa	0.3761 ± 0.0092
342.98 K, 5000 kPa	0.3882 ± 0.0094
342.98 K, 10000 kPa	0.4036 ± 0.0097
342.98 K, 15000 kPa	0.4205 ± 0.01
352.88 K, 20000 kPa	0.4014 ± 0.0097
352.88 K, 25000 kPa	0.4162 ± 0.0099
352.88 K, 30000 kPa	0.431 ± 0.01
352.89 K, 100 kPa	0.3436 ± 0.0085
352.89 K, 1000 kPa	0.346 ± 0.0086
352.89 K, 5000 kPa	0.3581 ± 0.0088
352.89 K, 10000 kPa	0.3728 ± 0.0091
352.89 K, 15000 kPa	0.3867 ± 0.0094
362.69 K, 100 kPa	0.3175 ± 0.008
362.7 K, 1000 kPa	0.32 ± 0.0081
362.7 K, 5000 kPa	0.3307 ± 0.0083
362.7 K, 10000 kPa	0.3452 ± 0.0086
362.71 K, 15000 kPa	0.3587 ± 0.0088
362.71 K, 20000 kPa	0.3726 ± 0.0091
362.71 K, 25000 kPa	0.3859 ± 0.0093
362.71 K, 30000 kPa	0.3995 ± 0.0096
372.5 K, 100 kPa	0.2936 ± 0.0076
372.5 K, 1000 kPa	0.2964 ± 0.0076
372.51 K, 5000 kPa	0.307 ± 0.0078
372.51 K, 10000 kPa	0.3199 ± 0.0081
372.51 K, 15000 kPa	0.3331 ± 0.0083
372.51 K, 20000 kPa	0.3463 ± 0.0086
372.51 K, 25000 kPa	0.3587 ± 0.0088
372.51 K, 30000 kPa	0.3715 ± 0.0091
